Earlier results as cited in PMC3437650 (Bioorganic & medicinal chemistry letters, 2008).

System: BBB choline transporter
Conditions: ref 11b

Substance: N,N’-(1,12-dodecandiyl)-bis-pyridinium dibromide [bPiDDB]
- share of permeation into brain that uses the BBB choline transporter: ~ 90%
